Source: patent US9790210B2, “N-(monocyclic aryl),N'-pyrazolyl-urea, thiourea, guanidine and cyanoguanidine compounds as TrkA kinase inhibitors” (Array BioPharma Inc., priority 2012, dated 2017)

Experiments:
Format in all cases: biochemical
off-target kinases = assay: KinaseProfiler off-target kinase profiling, full kinase panel; settings: 10 μM; panel of about 230 kinases
Method: (§1) A representative compound (Example 15) of the invention was tested for off-target kinase activity at a concentration of 10 μM by Millipore, Inc. in their KinaseProfiler™ service against all the kinases available in their full kinase panel. The compound was run in duplicate at a concentration of ATP near the Km for each individual kinase according to Millipore's specifications. The results are shown in Table B. Data are reported as percent of control (POC) and are the average of the two replicates.
Such a drug profile would represent a safer approach to treating pain, inflammation, cancer and certain skin diseases than has been previously reported.

AKT2 = biological target: T1, AKT2 (Homo sapiens, UniProt P31751); assay: KinaseProfiler; settings: 10 μM, ATP near Km
T1 construct: purchased Millipore (KinaseProfiler service)
Method: as §1

ALK = biological target: T2, ALK (Homo sapiens, UniProt Q9UM73); assay: KinaseProfiler; settings: 10 μM, ATP near Km
T2 construct: purchased Millipore (KinaseProfiler service)
Method: as §1

Bmx = biological target: T3, Bmx (Homo sapiens, UniProt P51813); assay: KinaseProfiler; settings: 10 μM, ATP near Km
T3 construct: purchased Millipore (KinaseProfiler service)
Method: as §1

CAMK1 = biological target: T4, CAMK1 (Homo sapiens, UniProt Q14012); assay: KinaseProfiler; settings: 10 μM, ATP near Km
T4 construct: purchased Millipore (KinaseProfiler service)
Method: as §1

CK1delta = biological target: T5, CK1delta (Homo sapiens, UniProt P48730); assay: KinaseProfiler; settings: 10 μM, ATP near Km
T5 construct: purchased Millipore, Inc. (KinaseProfiler service)
Method: as §1

DAPK2 = biological target: T6, DAPK2 (Homo sapiens, UniProt Q9UIK4); assay: KinaseProfiler; settings: 10 μM, ATP near Km
T6 construct: purchased Millipore, Inc. (KinaseProfiler service)
T6 sequence (Q9UIK4 whole entry): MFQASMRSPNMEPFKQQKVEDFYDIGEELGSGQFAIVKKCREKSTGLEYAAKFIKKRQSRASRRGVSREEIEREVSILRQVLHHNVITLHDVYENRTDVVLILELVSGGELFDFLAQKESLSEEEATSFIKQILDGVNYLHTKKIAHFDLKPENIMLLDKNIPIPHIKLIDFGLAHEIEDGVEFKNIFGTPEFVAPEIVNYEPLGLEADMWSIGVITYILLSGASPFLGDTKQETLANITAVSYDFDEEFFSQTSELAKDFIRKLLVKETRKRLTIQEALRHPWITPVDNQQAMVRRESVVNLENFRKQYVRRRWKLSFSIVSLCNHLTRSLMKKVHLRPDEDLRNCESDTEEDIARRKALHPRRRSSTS
Method: as §1

DAPK3 = biological target: T7, DAPK3 (Homo sapiens, UniProt O43293); assay: KinaseProfiler; settings: 10 μM, ATP near Km
T7 construct: purchased Millipore, Inc. (KinaseProfiler service)
Method: as §1

EphA2 = biological target: T8, EphA2 (Homo sapiens, UniProt P29317); assay: KinaseProfiler; settings: 10 μM, ATP near Km
T8 construct: purchased Millipore, Inc. (KinaseProfiler service)
Method: as §1

EphA3 = biological target: T9, EphA3 (Homo sapiens, UniProt P29320); assay: KinaseProfiler; settings: 10 μM, ATP near Km
T9 construct: purchased Millipore, Inc. (KinaseProfiler service)
Method: as §1

EphA5 = biological target: T10, EphA5 (Homo sapiens, UniProt P54756); assay: KinaseProfiler; settings: 10 μM, ATP near Km
T10 construct: purchased Millipore, Inc. (KinaseProfiler service)
Method: as §1

Fes = biological target: T11, Fes (Homo sapiens, UniProt P07332); assay: KinaseProfiler; settings: 10 μM, ATP near Km
T11 construct: purchased Millipore, Inc. (KinaseProfiler service)
T11 sequence (P07332 whole entry): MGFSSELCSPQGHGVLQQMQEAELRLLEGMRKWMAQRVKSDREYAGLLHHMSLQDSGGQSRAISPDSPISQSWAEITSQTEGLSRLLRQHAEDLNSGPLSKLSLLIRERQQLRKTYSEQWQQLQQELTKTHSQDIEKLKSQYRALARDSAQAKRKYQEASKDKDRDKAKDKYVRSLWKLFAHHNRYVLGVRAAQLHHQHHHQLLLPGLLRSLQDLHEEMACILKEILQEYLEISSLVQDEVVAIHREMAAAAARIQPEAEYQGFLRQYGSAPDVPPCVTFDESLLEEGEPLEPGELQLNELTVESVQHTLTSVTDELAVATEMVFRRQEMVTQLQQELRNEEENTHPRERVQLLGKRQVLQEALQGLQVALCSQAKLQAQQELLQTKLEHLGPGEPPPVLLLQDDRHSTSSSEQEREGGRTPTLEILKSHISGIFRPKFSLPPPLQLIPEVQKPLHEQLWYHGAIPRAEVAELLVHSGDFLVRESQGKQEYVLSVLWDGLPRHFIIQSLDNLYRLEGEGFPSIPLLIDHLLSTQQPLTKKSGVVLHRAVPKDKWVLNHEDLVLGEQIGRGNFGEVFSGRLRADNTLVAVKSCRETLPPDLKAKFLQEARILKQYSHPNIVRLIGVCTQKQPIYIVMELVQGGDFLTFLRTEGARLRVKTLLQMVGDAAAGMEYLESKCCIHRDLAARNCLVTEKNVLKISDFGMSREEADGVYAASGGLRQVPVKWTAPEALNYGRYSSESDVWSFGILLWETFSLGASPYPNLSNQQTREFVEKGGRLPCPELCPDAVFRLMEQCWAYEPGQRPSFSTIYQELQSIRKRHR
Method: as §1

GSK3alpha = biological target: T12, GSK3alpha (Homo sapiens, UniProt P49840); assay: KinaseProfiler; settings: 10 μM, ATP near Km
T12 construct: purchased Millipore, Inc. (KinaseProfiler service)
Method: as §1

GSK3beta = biological target: T13, GSK3beta (Homo sapiens, UniProt P49841); assay: KinaseProfiler; settings: 10 μM, ATP near Km
T13 construct: purchased Millipore, Inc. (KinaseProfiler service)
Method: as §1

HIPK1 = biological target: T14, HIPK1 (Homo sapiens, UniProt Q86Z02); assay: KinaseProfiler; settings: 10 μM, ATP near Km
T14 construct: purchased Millipore, Inc. (KinaseProfiler service)
Method: as §1

IGF-1R Activated = biological target: T15, IGF-1R Activated (Homo sapiens, UniProt P08069); assay: KinaseProfiler; settings: 10 μM, ATP near Km
T15 construct: purchased Millipore, Inc. (KinaseProfiler service)
T15 sequence (P08069 959-1367 limits assumed): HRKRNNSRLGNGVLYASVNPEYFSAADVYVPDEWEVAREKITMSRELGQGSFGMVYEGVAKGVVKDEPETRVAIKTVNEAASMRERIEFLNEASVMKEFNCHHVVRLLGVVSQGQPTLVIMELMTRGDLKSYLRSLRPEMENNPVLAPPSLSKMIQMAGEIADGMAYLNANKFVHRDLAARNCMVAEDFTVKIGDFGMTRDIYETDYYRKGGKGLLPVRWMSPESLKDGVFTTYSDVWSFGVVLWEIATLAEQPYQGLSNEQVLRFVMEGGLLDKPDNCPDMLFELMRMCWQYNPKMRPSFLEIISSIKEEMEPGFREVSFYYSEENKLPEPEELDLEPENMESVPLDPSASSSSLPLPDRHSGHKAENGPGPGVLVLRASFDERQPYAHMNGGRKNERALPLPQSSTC
Method: as §1

IKKbeta = biological target: T16, IKKbeta (Homo sapiens, UniProt O14920); assay: KinaseProfiler; settings: 10 μM, ATP near Km
T16 construct: purchased Millipore, Inc. (KinaseProfiler service)
Method: as §1

IRAK1 = biological target: T17, IRAK1 (Homo sapiens, UniProt P51617); assay: KinaseProfiler; settings: 10 μM, ATP near Km
T17 construct: purchased Millipore, Inc. (KinaseProfiler service)
Method: as §1

JNK2alpha2 = biological target: T18, JNK2alpha2 (Homo sapiens, UniProt P45984); assay: KinaseProfiler; settings: 10 μM, ATP near Km
T18 construct: purchased Millipore, Inc. (KinaseProfiler service)
T18 sequence (P45984 whole entry): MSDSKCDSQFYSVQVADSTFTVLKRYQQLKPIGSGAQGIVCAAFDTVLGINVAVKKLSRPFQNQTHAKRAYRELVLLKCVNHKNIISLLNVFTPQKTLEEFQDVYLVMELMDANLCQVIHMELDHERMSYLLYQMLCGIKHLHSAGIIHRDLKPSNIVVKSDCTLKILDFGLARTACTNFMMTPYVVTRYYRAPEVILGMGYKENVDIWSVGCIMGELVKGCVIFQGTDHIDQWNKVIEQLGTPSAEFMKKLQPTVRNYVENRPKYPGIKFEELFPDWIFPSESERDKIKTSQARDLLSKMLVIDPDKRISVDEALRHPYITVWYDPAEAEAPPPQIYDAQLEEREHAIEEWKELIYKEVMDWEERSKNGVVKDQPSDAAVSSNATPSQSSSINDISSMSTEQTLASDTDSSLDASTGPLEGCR
Method: as §1

JNK3 = biological target: T19, JNK3 (Homo sapiens, UniProt P53779); assay: KinaseProfiler; settings: 10 μM, ATP near Km
T19 construct: purchased Millipore, Inc. (KinaseProfiler service)
T19 sequence (P53779 whole entry): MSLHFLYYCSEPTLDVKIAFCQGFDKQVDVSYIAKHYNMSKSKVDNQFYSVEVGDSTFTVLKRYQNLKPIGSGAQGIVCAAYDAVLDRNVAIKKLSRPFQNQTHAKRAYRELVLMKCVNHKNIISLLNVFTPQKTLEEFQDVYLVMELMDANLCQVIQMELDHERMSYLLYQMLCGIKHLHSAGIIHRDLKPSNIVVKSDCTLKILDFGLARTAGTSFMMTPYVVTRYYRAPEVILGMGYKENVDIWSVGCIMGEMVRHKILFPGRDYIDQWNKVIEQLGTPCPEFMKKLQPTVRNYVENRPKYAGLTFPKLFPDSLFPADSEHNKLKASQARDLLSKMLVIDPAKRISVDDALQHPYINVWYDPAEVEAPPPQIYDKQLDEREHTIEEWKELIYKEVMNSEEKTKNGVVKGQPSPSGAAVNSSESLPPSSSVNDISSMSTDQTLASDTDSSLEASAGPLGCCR
Method: as §1

JNKlalpha1 = biological target: T20, JNKlalpha1 (Homo sapiens, UniProt P45983); assay: KinaseProfiler; settings: 10 μM, ATP near Km
T20 construct: purchased Millipore, Inc. (KinaseProfiler service)
Method: as §1

Lyn = biological target: T21, Lyn (Homo sapiens, UniProt P07948); assay: KinaseProfiler; settings: 10 μM, ATP near Km
T21 construct: purchased Millipore, Inc. (KinaseProfiler service)
Method: as §1

MELK = biological target: T22, MELK (Homo sapiens, UniProt Q14680); assay: KinaseProfiler; settings: 10 μM, ATP near Km
T22 construct: purchased Millipore, Inc. (KinaseProfiler service)
Method: as §1

MSSK1 = biological target: T23, MSSK1 (Homo sapiens, UniProt Q9UPE1); assay: KinaseProfiler; settings: 10 μM, ATP near Km
T23 construct: purchased Millipore, Inc. (KinaseProfiler service)
Method: as §1

NEK11 = biological target: T24, NEK11 (Homo sapiens, UniProt Q8NG66); assay: KinaseProfiler; settings: 10 μM, ATP near Km
T24 construct: purchased Millipore, Inc. (KinaseProfiler service)
Method: as §1

NLK = biological target: T25, NLK (Homo sapiens, UniProt Q9UBE8); assay: KinaseProfiler; settings: 10 μM, ATP near Km
T25 construct: purchased Millipore, Inc. (KinaseProfiler service)
Method: as §1

PTK5 = biological target: T26, PTK5 (Homo sapiens, UniProt P42685); assay: KinaseProfiler; settings: 10 μM, ATP near Km
T26 construct: purchased Millipore, Inc. (KinaseProfiler service)
Method: as §1

Pim-2 = biological target: T27, Pim-2 (Homo sapiens, UniProt Q9P1W9); assay: KinaseProfiler; settings: 10 μM, ATP near Km
T27 construct: purchased Millipore, Inc. (KinaseProfiler service)
Method: as §1

Plk1 = biological target: T28, Plk1 (Homo sapiens, UniProt P53350); assay: KinaseProfiler; settings: 10 μM, ATP near Km
T28 construct: purchased Millipore, Inc. (KinaseProfiler service)
T28 sequence (P53350 whole entry): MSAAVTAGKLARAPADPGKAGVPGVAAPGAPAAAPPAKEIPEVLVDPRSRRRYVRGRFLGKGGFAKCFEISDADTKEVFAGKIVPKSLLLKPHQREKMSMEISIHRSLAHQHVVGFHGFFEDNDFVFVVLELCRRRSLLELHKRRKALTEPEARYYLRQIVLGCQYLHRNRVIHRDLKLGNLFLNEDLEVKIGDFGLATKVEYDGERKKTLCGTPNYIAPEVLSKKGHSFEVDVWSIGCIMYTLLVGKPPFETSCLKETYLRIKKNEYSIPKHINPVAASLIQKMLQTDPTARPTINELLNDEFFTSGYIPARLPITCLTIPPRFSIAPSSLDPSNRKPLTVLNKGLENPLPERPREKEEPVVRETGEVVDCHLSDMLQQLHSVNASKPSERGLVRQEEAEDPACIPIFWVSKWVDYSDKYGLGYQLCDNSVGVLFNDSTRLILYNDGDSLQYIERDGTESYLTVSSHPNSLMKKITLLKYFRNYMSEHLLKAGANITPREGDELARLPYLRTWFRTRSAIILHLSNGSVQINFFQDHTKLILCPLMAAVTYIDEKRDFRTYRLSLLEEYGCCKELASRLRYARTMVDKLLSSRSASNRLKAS
Method: as §1

ROCK-II = biological target: T29, ROCK-II (Homo sapiens, UniProt O75116); assay: KinaseProfiler; settings: 10 μM, ATP near Km
T29 construct: purchased Millipore, Inc. (KinaseProfiler service)
T29 sequence (O75116 whole entry): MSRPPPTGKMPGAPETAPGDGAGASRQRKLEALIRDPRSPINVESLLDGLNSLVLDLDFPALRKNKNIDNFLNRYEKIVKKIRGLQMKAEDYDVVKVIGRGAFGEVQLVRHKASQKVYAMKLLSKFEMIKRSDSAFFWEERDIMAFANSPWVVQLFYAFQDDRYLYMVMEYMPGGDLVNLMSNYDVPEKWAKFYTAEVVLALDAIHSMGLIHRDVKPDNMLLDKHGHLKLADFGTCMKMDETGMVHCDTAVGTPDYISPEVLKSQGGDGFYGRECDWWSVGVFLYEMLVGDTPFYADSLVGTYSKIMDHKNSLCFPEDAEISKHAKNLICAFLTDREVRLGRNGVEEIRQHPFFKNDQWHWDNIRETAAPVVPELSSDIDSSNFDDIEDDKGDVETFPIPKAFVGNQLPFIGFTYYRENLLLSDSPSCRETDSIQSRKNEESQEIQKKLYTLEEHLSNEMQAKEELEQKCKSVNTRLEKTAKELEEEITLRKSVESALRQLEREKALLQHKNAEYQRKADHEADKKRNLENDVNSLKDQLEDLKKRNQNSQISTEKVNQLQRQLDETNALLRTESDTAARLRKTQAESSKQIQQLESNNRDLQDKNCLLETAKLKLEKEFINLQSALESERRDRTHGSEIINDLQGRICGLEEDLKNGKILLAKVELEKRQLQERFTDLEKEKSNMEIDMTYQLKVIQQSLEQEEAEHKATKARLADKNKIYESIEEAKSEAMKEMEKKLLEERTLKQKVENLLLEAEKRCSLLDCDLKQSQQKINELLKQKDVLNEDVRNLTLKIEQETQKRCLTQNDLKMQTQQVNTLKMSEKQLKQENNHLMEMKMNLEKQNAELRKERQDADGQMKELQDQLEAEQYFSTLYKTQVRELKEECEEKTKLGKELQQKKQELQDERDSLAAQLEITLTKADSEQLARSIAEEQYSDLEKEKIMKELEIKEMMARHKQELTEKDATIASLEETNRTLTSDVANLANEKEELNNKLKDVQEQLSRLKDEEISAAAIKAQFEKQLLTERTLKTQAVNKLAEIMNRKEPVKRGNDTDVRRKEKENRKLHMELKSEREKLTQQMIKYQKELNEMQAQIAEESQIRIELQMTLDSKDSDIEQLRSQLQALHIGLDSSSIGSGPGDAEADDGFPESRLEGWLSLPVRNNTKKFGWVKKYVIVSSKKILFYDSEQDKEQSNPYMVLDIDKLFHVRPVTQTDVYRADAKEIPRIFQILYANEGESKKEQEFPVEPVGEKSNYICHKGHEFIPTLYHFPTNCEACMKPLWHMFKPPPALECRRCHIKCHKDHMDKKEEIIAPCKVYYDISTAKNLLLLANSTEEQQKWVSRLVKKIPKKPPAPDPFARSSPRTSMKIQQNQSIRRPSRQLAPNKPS
Method: as §1

SIK = biological target: T30, SIK (Homo sapiens, UniProt P57059); assay: KinaseProfiler; settings: 10 μM, ATP near Km
T30 construct: purchased Millipore, Inc. (KinaseProfiler service)
Method: as §1

STK33 = biological target: T31, STK33 (Homo sapiens, UniProt Q9BYT3); assay: KinaseProfiler; settings: 10 μM, ATP near Km
T31 construct: purchased Millipore, Inc. (KinaseProfiler service)
Method: as §1

TAK1 = biological target: T32, TAK1 (Homo sapiens, UniProt O43318); assay: KinaseProfiler; settings: 10 μM, ATP near Km
T32 construct: purchased Millipore, Inc. (KinaseProfiler service)
Method: as §1

TEC Activated = biological target: T33, TEC Activated (Homo sapiens, UniProt P42680); assay: KinaseProfiler; settings: 10 μM, ATP near Km
T33 construct: purchased Millipore, Inc. (KinaseProfiler service)
Method: as §1

TNK2 = biological target: T34, TNK2 (Homo sapiens, UniProt Q07912); assay: KinaseProfiler; settings: 10 μM, ATP near Km
T34 construct: purchased Millipore, Inc. (KinaseProfiler service)
Method: as §1

Tie2 = biological target: T35, Tie2 (Homo sapiens, UniProt Q02763); assay: KinaseProfiler; settings: 10 μM, ATP near Km
T35 construct: purchased Millipore, Inc. (KinaseProfiler service)
Method: as §1

ULK3 = biological target: T36, ULK3 (Homo sapiens, UniProt Q6PHR2); assay: KinaseProfiler; settings: 10 μM, ATP near Km
T36 construct: purchased Millipore, Inc. (KinaseProfiler service)
Method: as §1

WNK2 = biological target: T37, WNK2 (Homo sapiens, UniProt Q9Y3S1); assay: KinaseProfiler; settings: 10 μM, ATP near Km
T37 construct: purchased Millipore, Inc. (KinaseProfiler service)
Method: as §1

mTOR = biological target: T38, mTOR (Homo sapiens, UniProt P42345); assay: KinaseProfiler; settings: 10 μM, ATP near Km
T38 construct: purchased Millipore, Inc. (KinaseProfiler service)
Method: as §1

p70S6K = biological target: T39, p70S6K (Homo sapiens, UniProt P23443); assay: KinaseProfiler; settings: 10 μM, ATP near Km
T39 construct: purchased Millipore, Inc. (KinaseProfiler service)
T39 sequence (P23443 whole entry): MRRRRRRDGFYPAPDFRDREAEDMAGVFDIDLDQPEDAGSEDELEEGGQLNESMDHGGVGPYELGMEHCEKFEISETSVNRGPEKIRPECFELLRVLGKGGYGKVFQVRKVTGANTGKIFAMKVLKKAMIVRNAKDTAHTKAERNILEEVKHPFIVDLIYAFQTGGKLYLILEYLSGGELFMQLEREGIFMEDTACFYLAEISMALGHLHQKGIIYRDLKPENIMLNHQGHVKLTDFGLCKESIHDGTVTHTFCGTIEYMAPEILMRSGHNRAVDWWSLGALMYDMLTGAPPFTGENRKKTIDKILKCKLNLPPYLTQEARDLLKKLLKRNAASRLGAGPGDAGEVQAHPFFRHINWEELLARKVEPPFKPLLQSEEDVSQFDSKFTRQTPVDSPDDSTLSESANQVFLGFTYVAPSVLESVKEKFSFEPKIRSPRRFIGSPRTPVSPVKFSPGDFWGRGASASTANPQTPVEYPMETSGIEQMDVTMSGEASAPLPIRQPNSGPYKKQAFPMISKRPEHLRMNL
Method: as §1

SMILES: COCCCc1cc(Cl)c(Cl)cc1NC(=O)Nc1c(C)c(-c2cnn(C)c2)nn1-c1ccccc1 [Example 15, 1-(4,5-dichloro-2-(3-methoxypropyl)phenyl)-3-(1′,4-dimethyl-1-phenyl-1H,1′H-[3,4′-bipyrazol]-5-yl)urea]
- off-target kinase activity / selectivity for TrkA versus other kinases in the panel (off-target kinases): largely inactive against off-target kinases
- Avg POC (AKT2): 166.5 POC
- Avg POC (ALK): 105 POC
- Avg POC (Bmx): 129.5 POC
- Avg POC (CAMK1): 96 POC
- Avg POC (CK1delta): 111.5 POC
- Avg POC (DAPK2): 104.5 POC
- Avg POC (DAPK3): 106 POC
- Avg POC (EphA2): 104 POC
- Avg POC (EphA3): 117 POC
- Avg POC (EphA5): 115.5 POC
- Avg POC (Fes): 110 POC
- Avg POC (GSK3alpha): 131 POC
- Avg POC (GSK3beta): 114.5 POC
- Avg POC (HIPK1): 118 POC
- Avg POC (IGF-1R Activated): 102 POC
- Avg POC (IKKbeta): 113.5 POC
- Avg POC (IRAK1): 103 POC
- Avg POC (JNK2alpha2): 92 POC
- Avg POC (JNK3): 104 POC
- Avg POC (JNKlalpha1): 107 POC
- Avg POC (Lyn): 84.5 POC
- Avg POC (MELK): 142.5 POC
- Avg POC (MSSK1): 122 POC
- Avg POC (NEK11): 75 POC
- Avg POC (NLK): 117 POC
- Avg POC (PTK5): 102.5 POC
- Avg POC (Pim-2): 142.5 POC
- Avg POC (Plk1): 89.5 POC
- Avg POC (ROCK-II): 99 POC
- Avg POC (SIK): 137 POC
- Avg POC (STK33): 104.5 POC
- Avg POC (TAK1): 95 POC
- Avg POC (TEC Activated): 101.5 POC
- Avg POC (TNK2): 124 POC
- Avg POC (Tie2): 160.5 POC
- Avg POC (ULK3): 92.5 POC
- Avg POC (WNK2): 122.5 POC
- Avg POC (mTOR): 102.5 POC
- Avg POC (p70S6K): 130.5 POC
